What follows are compounds tested on Plasmodium falciparum (assay: GSK_TCMDC: Inhibition of Plasmodium falciparum 3D7 in whole erythrocytes, using parasite LDH activity as an index of growth.). Settings: Plasmodium falciparum, 3D7.
Assay type: functional, organism-based
Work on `COC(=O)c1ccc(CCCNCC(O)c2cccc(C(F)(F)F)c2)cc1` (stereo unspecified) yielded an XC50 of 0.803 µM.
Compound `Cc1nc(-c2cccc(C(=O)Nc3cnc4ccccc4c3)c2)no1` has an XC50 of 1.16 µM.
`CC[C@H]1CN2CC[C@@H]1C[C@H]2[C@H](O)c1cc[n+]([O-])c2ccc(OC)cc12` was tested, and the XC50 was 0.748 µM.
For `Cc1cccc2c1NC(=O)/C2=N/NC(=S)N(C)C`, the XC50 was 0.755 µM.
`CC(C)(C)COC(=O)c1ccc(NC(=O)N[C@@H](Cc2ccc(O)cc2)C(=O)NC2CCN(Cc3ccc(O)cc3)C2)cc1` (stereo partly specified) gave an XC50 of 0.668 µM.
With `Cc1cn(CC(=O)Nc2cccc(-c3cccc(-c4nc5cccc(C)c5[nH]4)c3)c2)c(=O)[nH]c1=O` the XC50 was 0.581 µM.
Work on `COc1cccc(NC(=O)[C@H](C(C)C)n2c(=O)[nH]c3ccccc3c2=O)c1` yielded an XC50 of 0.266 µM.
`O=C(NCCCCCN1CCCN(C(=O)Nc2ccc(F)c(C(F)(F)F)c2)CC1)C1CC1c1ccc(Cl)c(Cl)c1` (stereo unspecified) was tested, and the XC50 was 1.03 µM.
`CNC(=O)C(NC(=O)c1ccccc1C(=O)OC)c1ccccc1` (stereo unspecified) was tested, and the XC50 was 0.556 µM.
Work on `CCNC(=O)CCc1cccc(Br)c1` yielded an XC50 of 0.533 µM.
With `COc1ccc(NC(=O)c2ccc3[nH]c(-c4ccc(Cl)cc4)cc3c2)cc1OCCN(C)C` the XC50 was 0.813 µM.
`COc1ccc2[nH]cc(C3CC4CCC(C3)N4CCC3CCN(C(=O)/C=C/c4ccc(Cl)c(Cl)c4)CC3)c2c1` (stereo unspecified) was tested, and the XC50 was 0.624 µM.
With `CNCc1ccc(-c2cccc(CNCc3ccc(-c4ccccc4)cc3)c2)c(C(=O)OC)c1` the XC50 was 0.98 µM.
In the case of `O=C(Nc1cccc(CN2CCN(Cc3ccc(O)cc3)CC2)c1)c1cc2ccccc2s1`, the XC50 is reported as 0.682 µM.
Work on `N=C(N)NCCN(Cc1ccccc1)c1ccccc1` yielded an XC50 of 0.345 µM.
In the case of `CCCc1cc(Cc2cnc(N)nc2N)ccc1OCCCCCC(=O)OCC`, the XC50 is reported as 0.495 µM.
Compound `CN(C)CC1CCCN1Cc1ccccc1-c1cnn(C)c(=O)c1Oc1ccc(F)cc1` (stereo unspecified) has an XC50 of 1.22 µM.
In the case of `O=C(Cc1ccc(NC(=O)c2ccc(O)c(-c3ccc(Cl)c(Cl)c3)c2)cc1)NCCN1CCCCC1`, the XC50 is reported as 0.841 µM.
`O=C(Cn1c(CCc2cccc(F)c2F)cc(=O)c2ccccc21)N(CCN1CCCCC1)Cc1ccc(-c2ccc(C(F)(F)F)cc2)cc1` showed an XC50 of 0.764 µM.
Work on `CC1CN(Cc2ccc(-c3ccc(-c4nc5cc(F)ccc5[nH]4)cc3)cc2)CC(C)O1` (stereo unspecified) yielded an XC50 of 0.564 µM.
For `Cc1cccc2nc(-c3cccc(-c4ccc(NC(=O)Nc5cccc(C#N)c5)cc4)c3)[nH]c12`, the XC50 was 0.187 µM.
`O=C(Nc1ccc(Cl)cc1)c1cccc2nc(C(F)(F)F)[nH]c12` showed an XC50 of 0.764 µM.
For `Cc1cccc(-c2ccc(CNC3CCN(CC4Cn5c(=O)ccc6ccc(F)c4c65)CC3)cn2)c1` (stereo unspecified), the XC50 was 1.53 µM.
For `COc1ccc(CC(Cc2ccc(OC)cc2)NCC(O)c2cccc(Cl)c2)cc1` (stereo unspecified), the XC50 was 0.155 µM.
With `O=C(Nc1ccc(OC2CCN(Cc3ccsc3)C2)c(Cl)c1)c1cccs1` (stereo unspecified) the XC50 was 0.96 µM.
`O=C(NCc1cccc(C(F)(F)F)c1)C1CCCN(C(=O)c2ccc(O)c(-c3ccc(Cl)c(Cl)c3)c2)C1` (stereo unspecified) was tested, and the XC50 was 0.804 µM.
For `O=C(Nc1cccc(CN2CCCN(Cc3ccc(O)cc3)CC2)c1)c1cc2ccccc2o1`, the XC50 was 1.2 µM.
`Cc1ccc(-c2cc(C(=O)Nc3ccc(S(=O)(=O)N4CC(C)OC(C)C4)cc3)[nH]n2)c(O)c1` (stereo unspecified) showed an XC50 of 0.608 µM.
With `CCOC(=O)c1ccc(N(CCCN(CCCN(c2ccc(C(=O)OCC)cc2)S(=O)(=O)c2ccc(C)cc2)CCc2ccc(O)cc2)S(=O)(=O)c2ccc(C)cc2)cc1` the XC50 was 1.05 µM.
`Cc1c2ccncc2c(C)c2c1[nH]c1ccccc12` [ELLIPTECINE] was tested, and the XC50 was 0.796 µM.
`COc1ccc2nc3cc(Cl)ccc3c(NCCCN3CCNCC3)c2c1` gave an XC50 of 0.232 µM.
Compound `Fc1ccc2[nH]c(-c3cccc(-c4cccc(CN5CCN(c6ccncc6)CC5)c4)c3)nc2c1` has an XC50 of 0.145 µM.
Work on `CCCCCCCc1c(C)[nH]c2ccc(F)cc2c1=O` yielded an XC50 of 0.289 µM.
Work on `COc1ccc(CCNc2nc(NCCc3cnc[nH]3)nc(NCc3cccc4ccccc34)n2)cc1OC` yielded an XC50 of 0.537 µM.
With `COc1cc(OC)c(NC(=O)Nc2ccnc3ccccc23)cc1Cl` the XC50 was 0.751 µM.
Compound `COc1ccc(NC(=O)Nc2nc(-c3ccc(Cl)c(C)c3)cs2)cc1N1CCN(C)CC1` has an XC50 of 0.266 µM.
`O=C(Nc1ccc(C(F)(F)F)cc1)c1ccc(S(=O)(=O)NC2CCN(CC3CCCCC3)C2)cc1` (stereo unspecified) was tested, and the XC50 was 0.723 µM.
For `O=S(=O)(NC1CCN(c2ccnc3cc(Cl)ccc23)C1)c1cccs1` (stereo unspecified), the XC50 was 0.697 µM.
`CC(CN(C)C)C(=O)Nc1cccc(-c2cccc(-c3nc4ccccc4[nH]3)c2)c1` (stereo unspecified) gave an XC50 of 1.06 µM.
`Cc1[nH]c(C)c(-c2cccc(-c3ccc(OC(F)(F)F)cc3)c2)c(=O)c1Br` gave an XC50 of 0.41 µM.
`O=C(/C=C/c1ccc(Cl)c(Cl)c1)NC1CCC(CN2CCC(c3nc4cccnc4[nH]3)CC2)CC1` (stereo unspecified) gave an XC50 of 1.23 µM.
With `CC[C@H]1CN2CC[C@@H]1C[C@H]2[C@H](O)c1cc(N2CCC(O)(c3ccccc3)CC2)nc2ccc(OC)cc12` the XC50 was 0.09 µM.
Work on `CCCc1cc(Cc2cnc(N)nc2N)cc(CCC)c1OCCCCCC(=O)OCC` yielded an XC50 of 0.0517 µM.
Work on `Cc1cccc2c(C3CCN(CC4CCC(NC(=O)/C=C/c5ccc(Cl)c(Cl)c5)CC4)CC3)c[nH]c12` (stereo unspecified) yielded an XC50 of 1.03 µM.
Work on `COc1cccc2cc(C(=O)N[C@@H](CC(C)C)C(=O)Nc3cc(F)ccc3Br)oc12` yielded an XC50 of 0.965 µM.
`CCCCC1(NC(=O)[C@H](CC(C)C)Nc2ccc(C#N)c3ccccc23)CCCCC1` gave an XC50 of 0.799 µM.
For `O=C(Nc1nc(-c2ccccn2)cs1)c1ccccc1COc1ccccc1`, the XC50 was 0.972 µM.
Work on `CCN(CC)CCNC(=O)c1ccc(NC(=O)c2ccc(-c3cc(NC(=O)CC4CCCC4)ccc3C)cc2)cc1` yielded an XC50 of 0.564 µM.
In the case of `COc1cc2c(cc1OC)CC(NCc1ccc(-c3ccc4nc[nH]c4c3)cc1)C2`, the XC50 is reported as 0.846 µM.
`COc1cc2nc(N3CCC(CNC(=O)c4ccc(-c5ccc(C(=O)N(C)C)cc5C)cc4)CC3)nc(N3CCN(C)CC3)c2cc1OC` gave an XC50 of 1.23 µM.
With `COc1ccc2nccc([C@@H](O)CN3CCC(NCc4cc5cccc(O)c5c(=O)[nH]4)CC3)c2c1` the XC50 was 0.385 µM.
With `Cc1cc(N[C@@H](Cc2ccccc2)C(=O)NCc2cccs2)nc(NCCc2ccccn2)n1` the XC50 was 1.28 µM.
`Fc1ccc(NC(S)=NN=Cc2ccccn2)cc1` gave an XC50 of 0.775 µM.
For `CCCCNc1cc(C)nc(NCc2ccccc2)n1`, the XC50 was 0.975 µM.
For `O=C(NCCN1CCN(S(=O)(=O)c2ccc(OC3CCNCC3)c(Br)c2)CC1)c1ccc(Cl)c(Cl)c1`, the XC50 was 0.891 µM.
With `O=C(NCc1ccccc1)c1nn(CCCN2CCC3(CC2)C(=O)NCN3c2ccccc2)cc1-c1ccc(Cl)c(Cl)c1` the XC50 was 1.05 µM.
`Nc1cnc(C#Cc2cc3ncnc(N(CCN4CCOCC4)c4ccc(OCc5cccc(F)c5)c(Cl)c4)c3s2)cn1` was tested, and the XC50 was 1.05 µM.
For `CCC1(C)CC(CCNCc2ccccc2O)(c2ccc(F)cc2)CCO1` (stereo unspecified), the XC50 was 0.88 µM.
`COc1cc2nc(N3CCC(CNC(=O)c4ccc(-c5ccc(Cl)cc5)cc4)CC3)nc(N)c2cc1OC` was tested, and the XC50 was 0.147 µM.
With `CCCCCCCCNCC(O)c1cc(-c2ccc(Cl)cc2)nc2cc(C)ccc12` (stereo unspecified) the XC50 was 0.0823 µM.
`CN(C)CCNCc1nc(-c2ccc3c(Nc4ccc(Oc5ccccc5)cc4)ccnc3c2)cs1` gave an XC50 of 0.736 µM.
With `Cc1csc2nc(-c3ccccn3)nc(Nc3ccc4ncsc4c3)c12` the XC50 was 1.11 µM.
With `Cc1ccc(CN2CCCN(Cc3cccc(NC(=O)c4cc5ccccc5s4)c3)CC2)cc1C` the XC50 was 0.735 µM.
Compound `Cc1cc(N2CCCCC2)nc2ccc(NC(=O)c3cncc(Br)c3)cc12` has an XC50 of 0.718 µM.
Work on `COc1ccc(Br)cc1/C=C/C(=O)Nc1cccc(C2CCCN(C)C2)c1` (stereo unspecified) yielded an XC50 of 0.892 µM.
`Cc1nc(N)nc(N)c1-c1ccc(Br)c([N+](=O)[O-])c1` gave an XC50 of 0.201 µM.
With `N#Cc1cccc(NC(=O)C2=C(CCc3ccc4c(c3)OCO4)NC(=O)NC2c2cccc(C#N)c2)c1` (stereo unspecified) the XC50 was 0.834 µM.
Work on `CC(C)CCn1c(Sc2ccc(C#N)c([N+](=O)[O-])c2)nnc1-c1cccc(Cl)c1` yielded an XC50 of 0.673 µM.
`CCN(CC)CCCC(C)Nc1ccnc2cc(Cl)ccc12` (stereo unspecified) [CHLOROQUINE PHOSPHATE] showed an XC50 of 0.178 µM.
For `CCC(C)c1ccc(NC(=O)C(C)c2ccc([N+](=O)[O-])cc2)cc1` (stereo unspecified), the XC50 was 0.176 µM.
Work on `CNC(=O)c1ccc2[nH]cc(C3CCN(CC4CCC(NC(=O)/C=C/c5ccccc5Cl)CC4)CC3)c2c1` (stereo unspecified) yielded an XC50 of 0.836 µM.
Compound `O=C(Nc1ccc2c(c1)OCO2)NC1CCN(c2ccnc(Nc3ccc(F)cc3)n2)C1` (stereo unspecified) has an XC50 of 0.743 µM.
Compound `COc1ccc(CN2CCCN(Cc3cccc(NC(=O)c4ccc(-c5ccccc5)cc4)c3)CC2)cc1` has an XC50 of 0.943 µM.
With `CCCNC(=O)C1Cc2c([nH]c3cc(Br)ccc23)C2(CCN(CCc3ccccc3)CC2)N1` (stereo unspecified) the XC50 was 0.972 µM.
In the case of `O=C(Nc1cccc(-c2nc3ccccc3[nH]2)c1)c1ccc(-c2cccc([N+](=O)[O-])c2)o1`, the XC50 is reported as 0.151 µM.
`Cc1nc(Nc2ccc(C)c(Cl)c2)c2c(C)noc2n1` gave an XC50 of 0.886 µM.
With `CN(C)c1ccc(C2c3[nH]cnc3CCN2C(=O)Nc2cccc([N+](=O)[O-])c2)cc1` (stereo unspecified) the XC50 was 0.966 µM.
For `COc1ccc2nccc(NCC3(O)CCN(CC(O)c4ccc5c(c4)NC(=O)CS5)CC3)c2n1` (stereo unspecified), the XC50 was 0.834 µM.
`Cc1[nH]c(C)c(-c2ccc(-c3ccccc3F)nc2)c(=O)c1Br` gave an XC50 of 0.401 µM.
Compound `Cc1cccc(CNc2nc(C)cc(N[C@@H](Cc3ccccc3)C(=O)NC3CCCC3)n2)c1` has an XC50 of 0.653 µM.
`CC1CN(C(=O)c2sc3ccccc3c2Cl)CC(C)O1` (stereo unspecified) was tested, and the XC50 was 0.0879 µM.
Work on `COc1cc(NCCCNCC2c3ccccc3Oc3ccccc32)nc2ccccc12` yielded an XC50 of 0.331 µM.
`O=C(NC1CC1)c1ccc2cc(C(=O)N3Cc4ccccc4C(c4ccccc4)C3)ccc2c1` (stereo unspecified) showed an XC50 of 0.91 µM.
`COc1ccc2nccc([C@@H](O)CN3CCC(NC(=O)c4ccc(Cl)c([N+](=O)[O-])c4)CC3)c2c1` showed an XC50 of 0.954 µM.
`Cc1cc(N[C@@H](Cc2ccccc2)C(=O)NC2CCCC2)nc(NCCCOC(C)C)n1` gave an XC50 of 1.48 µM.
In the case of `CCN(CC)S(=O)(=O)c1cc(-c2ccc(=O)n(CC(=O)c3ccc(C)cc3)n2)ccc1C`, the XC50 is reported as 0.895 µM.
In the case of `N=C(N)NC(=O)Nc1cc(F)c(Cl)c(Br)c1`, the XC50 is reported as 0.993 µM.
`O=C(NCCCCCN1CCC(c2c[nH]c3ccccc23)CC1)Nc1ccc(I)cc1` was tested, and the XC50 was 0.991 µM.
`COc1cccc(C(=O)C2CC2CN2CC=C(c3c(C)[nH]c4ccccc34)CC2)c1` (stereo unspecified) showed an XC50 of 0.71 µM.
Compound `CC(=O)Nc1ccc(C(=O)Nc2ccc(-c3cccc(-c4nc5cc(F)ccc5[nH]4)c3)cc2)cn1` has an XC50 of 0.231 µM.
Compound `Cc1ccc2cc(C3NC(=O)c4ccccc4N3)c(Cl)nc2c1` (stereo unspecified) has an XC50 of 0.945 µM.
`Cc1ccc(NC(=O)c2ccc3ncccc3c2)cc1OC1CCN(Cc2ccsc2)CC1` was tested, and the XC50 was 0.93 µM.
For `CCc1c(CCNCCCCCCNCCc2ccc(OC)c(OC)c2CC)ccc(OC)c1OC`, the XC50 was 0.735 µM.
For `CCCc1ccc(NC(=O)c2cccc(CN3CCCN(Cc4cccc(O)c4)CC3)c2)cc1`, the XC50 was 0.748 µM.
`Cc1cc(F)ccc1Nc1nc(N(C)c2ccccc2)c2cc(OCCN(C)C)ccc2n1` gave an XC50 of 0.786 µM.
`O=C(O[C@H]1CN[C@H](C#Cc2cc3ncnc(Nc4ccc5c(ccn5S(=O)(=O)c5cccs5)c4)c3s2)C1)N1CCOCC1` showed an XC50 of 1.1 µM.
